Measured values as given in the METLIN SMRT retention time set (Domingo-Almenara et al. 2019).

Assay: gradient 5% acetonitrile 3 min, to 50% in 2 min, to 85% in 15 min, held 3 min, 100 µL/min
Conditions: column: Zorbax Extend-C18 2.1 x 50 mm; eluents: water / acetonitrile, 0.1% formic acid
Summary of the method: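 The system's dead and dwell volumes were 40 μL and 900 μL, with a Zorbax Extend-C18 column (2.1 × 50 mm, 1.8 μm) run at 100 μL/min in water and acetonitrile containing 0.1% formic acid each. Pure standards were analyzed in mixtures of ~100 molecules by HPLC–quadrupole time-of-flight mass spectrometry in positive and negative ionization mode. Retention time was assigned from computationally picked, manually inspected adduct peaks.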

SMILES	RP-LC retention time [s]
CC(C)OCCCNC(=O)CCCn1c2ccccc2c2cnn(C)c(=O)c21	773
CCc1nn2c(CNC(=O)c3ccoc3)c(-c3ccccc3)nc2s1	808
C#CCCNC(=O)c1cccn(C)c1=O	572
COCc1nnc(C(=O)Nc2ccc(C(=O)NCCc3c[nH]c4ccc(C)cc34)cc2)s1	844
O=C(Cc1cccc(F)c1)NC1(c2nc(-c3ccsc3)no2)CCCCC1	589
Cc1cccc(NS(=O)(=O)c2cc(-c3cc(C(F)(F)F)on3)sc2C)c1	1150
COC(=O)Nc1nc(CC(=O)NCc2cn3ccccc3n2)cs1	617
Cc1cc2nn(CC(=O)Nc3ccc(F)c(F)c3)c(=O)n2c(Nc2ccc(F)cc2)n1	1020
CCOC(=O)COc1cc(-c2ccc(C)cc2)nc2ccc(NC(=O)c3cccs3)cc12	830
COCCCn1c(=O)c2ccccc2n(Cc2nc(-c3ccc(F)cc3)no2)c1=O	1010
Cc1c(CCO)c(=O)n2n1CCCC2	618
O=C(CSc1ncnc2c1cnn2-c1ccc(Cl)cc1)Nc1ccc(F)cc1F	750
Cc1noc(C)c1CC(=O)N1CCCn2ccnc2C1C(C)C (stereo not given)	632
CCOc1ccc(-c2cc(=O)n(CC(=O)NCCn3ncccc3=O)cn2)cc1	614
Cc1ccc2nc(NC(=O)CSc3nnc(Cc4c(C)[nH]c(=O)[nH]c4=O)o3)sc2c1	643
COC(=O)C(Cc1ccccc1)NC(=O)Nc1cccn2c(C)nnc12 (stereo not given)	685
CC(C)Oc1ccc(-c2noc(Cn3nc(-c4ccccc4)ccc3=O)n2)cc1	732
N#CCc1nc(-c2cc3ccccc3o2)cs1	860
CCCn1cc(-c2nc(-c3cccnc3)no2)c(=O)c2cc(F)ccc21	770
CCN(Cc1ccccc1)S(=O)(=O)c1cc(-c2nc(C)cs2)sc1C	1200
COC(=O)C1=CN(c2ccc(N(C)C)cc2)c2cc(F)ccc2S1(=O)=O	926

SMILES	RP-LC retention time [s]
CC(C)c1nc2nccc(-c3ccccc3)n2n1	827
COc1cccc(-c2noc(Cn3nc(-c4ccccc4)ccc3=O)n2)c1	998
Cn1c(Cn2c(=O)sc3ccccc32)nnc1SCC(=O)N1CCc2ccccc21	746
CCn1ncc(C(=O)N2CCCn3ccnc3C2C(C)C)c1C (stereo not given)	567
COCCCNCc1c(C(=O)O)c(C)n(Cc2ccccc2Cl)c1C	688
O=C(O)/C=C/c1ccc(Cn2ccnc2)cc1	612
O=C(CCn1cnc2c(cnn2-c2ccccc2)c1=O)Nc1ccc2c(c1)OCCO2	754
COc1ccc(-n2c(=O)c3sccc3n(Cc3nc(-c4ccc(Cl)c(F)c4)no3)c2=O)cc1	1060
Cc1ccc(C(=O)Nc2nc(-c3ccccc3)cs2)cc1[N+](=O)[O-]	1090
CCOC(=O)c1ccc(Nc2c(-c3ccc(Cl)cc3)nc3cnccn23)cc1	964
Cn1cc(C(=O)NCc2ccccc2)c(S(=O)(=O)N2CCSCC2)n1	834
CCCC(NC(=O)c1ccc(C)cc1C)C(=O)Nc1nc2ccccc2[nH]1 (stereo not given)	735
CO[C@@H]1C=C2CCN(C)[C@@H]2C2c3cc4c(cc3C(=O)O[C@H]21)OCO4 (stereo not given in full)	636
COC(=O)C(NC(=O)Nc1ccc(-c2nc(-c3ccccc3)co2)cc1)c1ccccc1 (stereo not given)	1090
CC12CCC3C(CC=C4CC(O)CCC43C)C1C/C(=C\N1CCCC1)C2=O (stereo not given)	943
N#Cc1ccccc1CN1CC[C@@H]2CN(Cc3cccnc3)[C@@H]2C1	556
CCOC(=O)c1cc2c([nH]c1=O)CC(c1ccccc1)CC2=O (stereo not given)	735
Cc1ccc(C)c(CNS(=O)(=O)c2cc(-c3csc(C)n3)sc2C)c1	1100
CCCCOc1ccc(-c2ccc(=O)n(Cc3nc(-c4ccccc4Br)no3)n2)cc1	1260
O=c1n(Cc2ccccc2F)nc2c(S(=O)(=O)N3CCc4ccccc4C3)cccn12	947
COCCCN1C(=O)CSc2c(c3ccccc3n2C)C1C(=O)NCCCOC(C)C (stereo not given)	825

Results, then the compound that gave them:

RP-LC retention time [s]	SMILES
909	COc1ccc(Cn2nc3c(S(=O)(=O)N4CCCCCC4)cccn3c2=O)cc1
554	CS(=O)(=O)N1CCC(C(=O)Nc2nnc(SCc3ccccn3)s2)CC1
873	COc1ccc(NC(=O)C2CCc3nc(N4CCC(C)CC4)ncc3C2)c(OC)c1 (stereo not given)
908	COc1ccc(N2CCN(c3cc(SCC(=O)NCc4ccc(Cl)cc4)ncn3)CC2)cc1
558	CN1CCC(N2CCN(C(=O)C3CCc4sc(C(=O)N5CCCC5)cc4C3)CC2)CC1 (stereo not given)
791	CCCc1nc(NCc2ccc3c(c2)OCO3)ncc1C(=O)O
666	COCC(=O)NC1CCN(c2ccc(C)cc2)C1=O (stereo not given)
601	COc1ccc(OCC(=O)N2CCCCC2CCN2CCOCC2)cc1 (stereo not given)
675	CC1CCN(c2cc(-n3cnc(C(=O)N4CCN(c5ccccn5)CC4)c3)ncn2)CC1
735	CC(=O)Nc1nc(-c2ccc(S(=O)(=O)N3CCOCC3)cc2)cs1
859	CCn1cc(C)c(C(=O)O)c1CC(=O)Nc1cc(F)ccc1F
708	Cc1cc(Cl)ccc1S(=O)(=O)NC1CCc2nn(C)c(=O)n2CC1 (stereo not given)
696	COc1ccc(CN(Cc2ccccc2)Cc2cc(=O)n3cc(C)ccc3n2)cc1
902	COc1ccccc1-c1nnc(-c2cc(S(=O)(=O)N3CCOCC3)ccc2Cl)o1
674	CN1C(=O)C2(c3ccccc31)C(C(=O)Nc1ccc(Br)cc1F)CC1CCCN12 (stereo not given)
755	CCOc1ccc(C(=O)NC2CCN(c3cc(-c4cccs4)[nH]n3)C2)cc1OCC (stereo not given)
1070	Cn1cc(C(=O)C(=O)NC2CCCCC2)c2ccccc21
595	COc1ccc(OC)c2nc3c(C(=O)NCCN(C)C)cccc3nc12
782	Cn1c(=O)c2ccn(CC(=O)N3CCC(Cc4ccccc4)CC3)c2n(C)c1=O
943	Cc1ccc(CCNC(=O)CN2C(=O)C3CCCCN3c3ccc(S(=O)(=O)N(C)C)cc32)cc1 (stereo not given)
958	Cc1ccc(S(=O)(=O)N2C(=O)CCC2C(=O)NC2CCC(C)CC2)cc1 (stereo not given)
1010	O=C(C1CCCN(c2nc3cccnc3s2)C1)N1CCN(c2cccc(Cl)c2)CC1 (stereo not given)
648	CCCNC(=O)N1CCC(c2noc(-c3ccccn3)n2)C1 (stereo not given)
672	Cc1cc(N2CCN(C(=O)C3CCCCC3)CC2)nc(N2CCCC2)n1

RP-LC retention time [s]	SMILES
605	CN(C)C[C@@H]1CN(c2ncccn2)C[C@H]1NC(=O)c1ccc(Cl)s1
979	O=C(Cn1nc(N2CCSCC2)c2ccccc2c1=O)Nc1ccccc1C(F)(F)F
574	COc1ccc(OC)c(CN2C[C@@H]3C(=O)N(C)C(=O)[C@@H]3C2)c1
872	COc1ccc(CNC(=O)C2(C)CCN(C(=O)Nc3ccc(F)c(Cl)c3)CC2)cc1
818	COc1cccc(N2CCN(S(=O)(=O)c3nn(C)cc3C(=O)NC3CC3)CC2)c1
1060	CC1CCN(C(=O)c2cn(-c3cc(-c4nc(C(C)(C)C)no4)ccn3)cn2)CC1
995	CCc1cc(C(=O)Nc2cccc(C)c2)nc2ccnn12
1040	CCOC(=O)c1sc(NCCc2c[nH]c3ccc(OC)cc23)nc1-c1ccccc1
868	COc1cccc(-c2ccnc3nc(C4CCC4)nn23)c1
732	CCOC(=O)C1CCN(C(=O)CN2C(=O)C3CCCCN3c3ccc(C(=O)N(C)C)cc32)CC1 (stereo not given)
829	Cc1nc(-c2cc(S(=O)(=O)NCC(=O)N3CCN(c4cccc(Cl)c4)CC3)c(C)s2)no1
722	O=C(CC1CCN(C(=O)c2ccc3nc(-c4ccccc4)oc3c2)CC1)NCC1CCCO1 (stereo not given)
660	Cc1cc(=O)n(CC(=O)NCc2ccccc2Br)c(N2CCOCC2)n1
982	CCOc1ccc2nc(C(=O)NC3CCCCCC3)cn2n1
631	COc1ccccc1N1CCN(CC(O)c2ccc3c(c2)OCO3)CC1 (stereo not given)
573	CCN(CC)c1ccc(NC(=O)C2CC(=O)N(c3cccc(NC(C)=O)c3)C2)c(C)c1 (stereo not given)
548	COC(=O)c1ccc(CN2CCN(c3cnn4cnnc4c3)CC2)cc1
780	CC1=C(c2ccc(Cl)cc2)S(=O)(=O)N=C1N1CCCN(C(=O)NC(C)C)CC1
1130	COc1ccc(NS(=O)(=O)c2cc(-c3cc(C(F)(F)F)on3)sc2C)c(OC)c1
902	COc1cc(C(=O)N2CCC3(CC2)Nc2ccccc2-n2cccc23)cc(OC)c1OC
630	COc1ccc(-c2nc(-c3ccc4c(c3)ncn4CCN3CCCCC3)no2)cc1OC
813	Cc1cc(N2CCCC2)nc(N2CCN(C(=O)c3ccc(C(C)(C)C)cc3)CC2)n1
786	CC(C)CNC(=O)C1CCN(c2nc3ccsc3c(=O)n2-c2ccccc2)CC1
739	O=C(NC1CC1)c1cccc2c1CCN2C(=O)c1ccc(F)cc1
